“And” between values parts separate entries of the source, which are not always exact repeats. Equal values may be shown once. “Also recorded” adds a separate entry of the source.
Legend:
HPIV-3 [1] = test: HPIV-3 syncytia formation in HEp-2 cells; format: cell-based; details: for rescue of lovastatin inhibition of HPIV-3 syncytia formation: added to lovastatin treated cells
HPIV-3 [2] = test: HPIV-3 replication in HEp-2 cells, plaque assay; format: cell-based; details: for reduction of HPIV-3 replication: 5 μM, 24 hrs treatment, MOI 0.1, titer 2 days after infection; for rescue of lovastatin inhibition of HPIV-3 replication: added to 10 μM lovastatin treated cells, 50 μM GGP, mevalonolactone or FP, cholesterol concentration not given
RSV [3] = test: RSV replication in mice, lung plaque assay; format: in vivo; details: for peak RSV titer in the lung: mice, oral gavage beginning three days prior to infection, 1 mg/day lovastatin or 50 mg/day gemfibrozil, lungs day 4
vaccinia virus = format: in vivo, mice; details: 1 mg/day lovastatin or 50 mg/day gemfibrozil oral gavage beginning three days prior to infection, vs PBS
[4] = Weight loss in uninfected treated mice; format: in vivo; details: 1 mg/day lovastatin or 50 mg/day gemfibrozil for 11 days
RSV [5] = test: RSV-induced weight loss and illness in mice; format: in vivo; details: for peak percent weight loss on day 8 post infection: comparison PBS, gemfibrozil, lovastatin treated RSV-infected mice
HIV-1 = details: human H9 lymphocytic cell line, early stages of infection; cited from earlier work
RSV [6] = test: RSV replication in HEp-2 cell culture, plaque assay; format: cell-based
Method: FIG. 5—Lovastatin eliminates RSV replication in cell culture. HEp-2 cell monolayers grown in 96 well plates were treated with either 10 μM lovastatin or left untreated beginning 24 hr prior to RSV infection (moi 0.1). Virus titer was measured for 8 consecutive days after RSV infection daily by plaque assay for eight days post RSV infection by harvesting the entire contents of a well and performing plaque assays in triplicate. RSV growth curve in untreated cells (□) and in cells treated with 10 μM lovastatin ( ? ). Error bars represent standard deviation.
Virus and Cells. The A2 strain of RSV was provided by Dr. R. Chanock, NIH, Bethesda, Md. RSV stocks were prepared as previously described (Graham et al., 1988). HEp-2 cells were maintained in Eagle's minimal essential media supplemented with glutamine, gentamicin, penicillin G, and 10% fetal bovine serum (FBS).
Plaque assay. Two-day-old HEp-2 monolayers, 80% confluent in 12-well plates (Costar, Cambridge, Mass.) were used for plaque assay. The assay was done as previously described (Graham et al., 1988).
Lovastatin eliminates RSV replication in HEp-2 cells. Next, the inventors asked whether lovastatin could alter RSV replication in cell culture. HEp-2 cells in a 96-well plate were treated with either 10 μM lovastatin or left untreated beginning 24 hr prior to RSV infection. […]

[7] = system: RSV glycoproteins F, G and SH; format: cell-based
HIV = details: cultured MT-2 cells; reported in U.S. Ser. No. 09/129,565; cited from earlier work
[8] = 5 μM, beginning 24 hr prior to infection, MOI 0.1, two days post infection
[9] = 10 μM lovastatin beginning 24 hr prior to infection, MOI 0.1

**Q.** With `COC(=O)[C@H](CCSC)NC(=O)c1ccc(NC[C@@H](N)CS)cc1-c1ccccc1` [FTI-277] as the compound, how does the HPIV-3-induced syncytia formation (HPIV-3 [1]; [8]) read?
**A.** does not inhibit

**Q.** And the “reduction of HPIV-3 replication” value (HPIV-3 [2])?
**A.** 10 fold

**Q.** For `COC(=O)[C@H](CC(C)C)NC(=O)c1ccc(NC[C@@H](N)CS)cc1-c1cccc2ccccc12` [GGTI-298], which HPIV-3-induced syncytia formation (HPIV-3 [1]; [8]) is on record?
**A.** blocked

**Q.** And the “reduction of HPIV-3 replication” value (HPIV-3 [2])?
**A.** 100 fold

**Q.** Which “rescue of lovastatin inhibition of HPIV-3 replication” value (HPIV-3 [2]) does the source give for `CC(C)CCC[C@@H](C)[C@H]1CC[C@H]2[C@@H]3CC=C4C[C@@H](O)CC[C@]4(C)[C@H]3CC[C@]12C` [cholesterol] here?
**A.** cannot rescue the inhibition

**Q.** Which results are given for `CC(C)=CCC/C(C)=C/CC/C(C)=C/COP(=O)(O)OP(=O)(O)O` [farnesylpyrophosphate]?
**A.** rescue of lovastatin inhibition of HPIV-3 syncytia formation (HPIV-3 [1]): does not rescue the inhibition; rescue of lovastatin inhibition of HPIV-3 replication (HPIV-3 [2]): partially restores

**Q.** With `Cc1ccc(C)c(OCCCC(C)(C)C(=O)O)c1` [gemfibrozil] as the compound, how does the “inhibition of RSV replication in mice” value (RSV [3]; 50 mg/day gemfibrozil oral gavage (FIG. 1)) read?
**A.** does not inhibit RSV replication

**Q.** What about the “peak RSV titer in the lung” value (RSV [3]) of the same compound?
**A.** 6.5+/−0.43 log10 pfu/gm

**Q.** And the “effect on vaccinia replication” value (vaccinia virus)?
**A.** not effected

**Q.** And the “weight loss in uninfected mice” value [4]?
**A.** no significant weight loss

**Q.** And the “peak percent weight loss on day 8 post infection” value (RSV [5])?
**A.** 40%

**Q.** Which “rescue of lovastatin inhibition of HPIV-3 syncytia formation” value (HPIV-3 [1]) does the source give for `CC(C)=CCC/C(C)=C/CC/C(C)=C/CC/C(C)=C/COP(=O)(O)OP(=O)(O)O` [geranylgeranylpyrophosphate] here?
**A.** rescues the inhibition

**Q.** What about the “rescue of lovastatin inhibition of HPIV-3 replication” value (HPIV-3 [2]) of the same compound?
**A.** rescues the inhibition

**Q.** For `CC[C@H](C)C(=O)O[C@H]1C[C@@H](C)C=C2C=C[C@H](C)[C@H](CC[C@@H]3C[C@@H](O)CC(=O)O3)[C@H]21` [lovastatin], which “reduction in RSV viral titer” value (RSV [3]; 1 mg/day lovastatin beginning 1 day after RSV infection) is on record?
**A.** 10 fold

**Q.** What about the “reduction in RSV viral titer compared to untreated mice” value (RSV [3]; 1 mg/day lovastatin beginning 3 days after infection) of the same compound?
**A.** no reduction

**Q.** What about the “RSV viral titer in the lung on day 4” value (RSV [3]; 1 mg/day lovastatin beginning 3 days prior to infection) of the same compound?
**A.** 3.8+/−0.48 log10 pfu/gm

**Q.** What about the “reduction in RSV viral titer in lung compared to untreated mice” value (RSV [3]; 1 mg/day lovastatin beginning 3 days prior to infection, day 4) of the same compound?
**A.** > 100 fold and 100- to 1000 fold

**Q.** And the “reduction of RSV replication” value (RSV [3]; 1 mg/day lovastatin oral gavage beginning three days prior to infection, vs PBS/gemfibrozil (FIG. 1))?
**A.** ~100 fold

**Q.** And the “RSV viral titer in the lung on day 4” value (RSV [3]; 1 mg/day lovastatin starting 3 days after RSV infection)?
**A.** 6.3+/−1.1 log10 pfu/gm

**Q.** And the “inhibition of RSV replication, dose response” value (RSV [3]; C57BL6 mice, 1 mg/day and 5 mg/day within 0.5 to 20 mg/day dose response)?
**A.** inhibited RSV replication equivalently

**Q.** And the “peak RSV titer in the lung” value (RSV [3])?
**A.** 4.7+/−0.4 log10 pfu/gm

**Q.** And the “effect on vaccinia replication” value (vaccinia virus)?
**A.** not effected; also recorded: does not inhibit vaccinia virus replication

**Q.** What about the “reverse transcriptase activity in H9 cells infected with HIV-1” value (HIV-1) of the same compound?
**A.** decrease in reverse transcriptase activity

**Q.** And the “RSV replication in HEp-2 cells” value (RSV [6]; 10 μM lovastatin beginning 24 hr prior to RSV infection (moi 0.1), titer for 8 days)?
**A.** completely inhibited

**Q.** And the HPIV-3-induced syncytia formation (HPIV-3 [1]; [9])?
**A.** blocked

**Q.** What about the HPIV-3 replication (HPIV-3 [2]; [9]) of the same compound?
**A.** completely blocks

**Q.** And the “weight loss in uninfected mice” value [4]?
**A.** no significant weight loss

**Q.** And the “peak weight loss 8 days post infection” value (RSV [5]; 1 mg/day lovastatin 1 day post infection)?
**A.** 22%

**Q.** And the “peak weight loss 8 days post infection” value (RSV [5]; 1 mg/day lovastatin 1 day prior to infection)?
**A.** 19%

**Q.** What about the “peak percent weight loss at 8 days post infection” value (RSV [5]; 1 mg/day lovastatin 3 days after RSV infection) of the same compound?
**A.** about 30%

**Q.** And the “peak weight loss 8 days post infection” value (RSV [5]; 1 mg/day lovastatin 3 days prior to infection)?
**A.** 17%

**Q.** And the “peak percent weight loss on day 8 post infection” value (RSV [5])?
**A.** 19%

**Q.** What about the RSV-induced illness (RSV [5]; lovastatin treatment, data not shown) of the same compound?
**A.** reduces RSV-induced illness

**Q.** And the “diminution of virus-induced cell-to-cell fusion” value [7]?
**A.** greater than 50%

**Q.** And the “fusion events per well” value [7]?
**A.** 75+/−11 fusion events per well

**Q.** What does the source list for `C[C@@]1(O)CCOC(=O)C1` [mevalonolactone]?
**A.** rescue of lovastatin inhibition of RSV replication (RSV [6]; 10 μM lovastatin for 24 hr followed by 20 μM mevalonolactone): can be rescued; rescue of lovastatin inhibition of HPIV-3 syncytia formation (HPIV-3 [1]): rescues the inhibition; rescue of lovastatin inhibition of HPIV-3 replication (HPIV-3 [2]): rescues the inhibition

**Q.** Which “HIV infection and syncytia formation” value (HIV) does the source give for “RhoA77-95: peptide comprising the sequence of amino acids 77-95 of RhoA (TDVILMCFSIDSPDSLENI; UniProt P61586 77-95, looked up, fragment)” here?
**A.** inhibit both infection and syncytia formation
